“And” between values parts separate entries of the source, which are not always exact repeats. Equal entries are not always repeated. Where two headings read alike, the source gives them in different places.
Assays:
ADORA2A = ADORA2A (Homo sapiens, UniProt P29274); experiment: GPCR screening, calcium flux (calcium mobilization), antagonist format; type: cell-based
Protocol: To ascertain whether the compounds are suitable A2aR antagonists, the compounds of formulae I, II, III, and IV were subjected to GPCR screening using A2aR as the target. The screening was done using the GPCR Screening and Profiling Services by Eurofins DiscoverX Corporation.
The compounds of formulae I, II, III, and IV were screened for GPCR activity using A2aR as the target.
Cell lines were expanded from freezer stocks according to standard procedures. Cells were seeded in a total volume of 20 μL into black-walled, clear-bottom, Poly-D-lysine coated 384-well microplates and incubated at 37° C. for the appropriate time prior to testing.
Assays were performed in 1× Dye Loading Buffer consisting of 1× Dye, 1× Additive A and 2.5 mM Probenecid in HBSS/20 mM Hepes. Probenicid was prepared fresh. Cells were loaded with dye prior to testing. Media was aspirated from cells and replaced with 20 μL Dye Loading Buffer. Cells were incubated for 30-60 minutes at 37° C.
For antagonist determination, cells were pre-incubated with sample followed by agonist challenge at the EC80 concentration. Intermediate dilution of sample stocks was performed to generate 3× sample in assay buffer. After dye loading, cells were removed from the incubator and 10 μL 3× sample was added. Cells were incubated for 30 minutes at room temperature in the dark to equilibrate plate temperature. Vehicle concentration was 1%. Compound antagonist activity was measured on a FLIPR Tetra (MDS). Calcium mobilization was monitored for 2 minutes and 10 μL EC80 agonist in HBSS/20 mM Hepes was added to the cells 5 seconds into the assay.
For antagonist and negative allosteric modulation mode assays, percentage inhibition is calculated using the following formula: % Inhibition=100%×(1−(mean RFU of test sample−mean RFU of vehicle control)/(mean RFU of EC80 control−mean RFU of vehicle control)).
When the calcium was released, the fluorescence of the dye was increased and the increase was measured in real-time.
FIGS. 1 to 6 show percent reacted (Y) versus concentration in μM (X). Compounds were tested in antagonist mode with the requested GPCR Biosensor Assay. For the antagonist assay, data was normalized to the maximal and minimal response observed in the presence of EC80 ligand and vehicle.

[1] = Plasma pharmacokinetics in male CD-1 mice (1 mg/kg i.v. or 3 mg/kg p.o.); details: CD-1, mouse, in vivo
Protocol: (§1) Male CD-1 mice were given either bolus 1 mg/kg i.v. or 3 mg/kg p.o. of the indicated compounds and plasma or brain concentrations were measured.
(§2) Where: • C0 concentration extrapolated to time zero following an i.v. dose • tmax time at which maximum concentration is observed • Cmax maximum observed concentration • Apparent t1/2 apparent terminal half-life • AUC0-tlast area under the concentration vs time curve from time 0 to the time of the last measurable concentration • AUC0-inf area under the concentration vs time curve from time 0 to infinity • CL systemic clearance • MRT0-inf mean residence time from time zero to infinity • Vss steady-state volume of distribution • F oral bioavailability=(Dose^iv*AUC^po)/(Dose^po*AUC^iv)*100

[2] = Brain pharmacokinetics and brain/plasma ratio in male CD-1 mice (1 mg/kg i.v.); type: in vivo; details: for Brain concentration / concentration at 5 min / concentration at 0.25 h / concentration at 0.5 h / concentration at 1 h / concentration at 2 h / concentration at 4 h / concentration at 6 h / concentration at 8 h: 1 mg/kg bolus i.v.; for concentration at 5 min / concentration at 0.25 h / concentration at 0.5 h / concentration at 1 h / concentration at 2 h / concentration at 4 h / concentration at 6 h / concentration at 8 h: intravenous, 1 mg/kg
Protocol: as §1, §2

[3] = male, CD-1, mouse, iv, brain, i.v. 1 mg/kg

ADORA2A, sequence (P29274 whole entry): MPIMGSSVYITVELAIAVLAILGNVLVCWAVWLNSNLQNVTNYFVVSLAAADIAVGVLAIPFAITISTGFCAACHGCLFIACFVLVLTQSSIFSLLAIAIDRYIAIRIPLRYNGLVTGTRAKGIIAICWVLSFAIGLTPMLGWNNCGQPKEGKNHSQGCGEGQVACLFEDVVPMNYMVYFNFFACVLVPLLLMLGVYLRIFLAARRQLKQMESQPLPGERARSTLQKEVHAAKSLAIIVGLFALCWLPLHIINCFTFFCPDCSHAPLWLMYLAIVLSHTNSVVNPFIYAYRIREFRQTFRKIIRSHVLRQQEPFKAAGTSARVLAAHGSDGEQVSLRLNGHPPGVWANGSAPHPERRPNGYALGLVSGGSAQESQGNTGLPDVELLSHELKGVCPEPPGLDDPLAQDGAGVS

**Q.** For `CCn1c(=S)c2c(nc(/C=C/c3ccc(OC)c(OC)c3)n2C)n(CC)c1=O` [Formula III, 8-[(E)-2-(3,4-dimethoxyphenyl)vinyl]-1,3-diethyl-7-methyl-6-thioxo-purin-2-one], which “Curve Bottom” value (ADORA2A; Antagonist format) is on record?
**A.** The value was 5.0984.

**Q.** What about the “Curve Top” value (ADORA2A; Antagonist format) of the same compound?
**A.** The value was 98.

**Q.** What about the Hill (ADORA2A; Antagonist format) of the same compound?
**A.** Its Hill is 1.3853.

**Q.** What about the Emax (ADORA2A; read-out: Max Response) of the same compound?
**A.** Its Emax is 97.1%.

**Q.** What about the bioavailability [1] of the same compound?
**A.** The bioavailability was 21.5%.

**Q.** And the AUC(0-inf) ([1]; iv, 1 mg/kg)?
**A.** The AUC(0-inf) was 1580 ng·h/mL.

**Q.** What about the AUC(0-t) ([1]; iv, 1 mg/kg) of the same compound?
**A.** The AUC(0-t) was 1280 ng·h/mL.

**Q.** And the Cmax ([1]; iv, 1 mg/kg)?
**A.** Its Cmax is 360 ng/mL.

**Q.** And the MRT inf ([1]; iv, 1 mg/kg)?
**A.** The MRT inf was 4.73 h.

**Q.** What about the Tmax ([1]; iv, 1 mg/kg) of the same compound?
**A.** The Tmax was 0.25 h.

**Q.** And the Vd ([1]; iv, 1 mg/kg)?
**A.** Its Vd is 3 L/kg.

**Q.** And the clearance ([1]; iv, 1 mg/kg)?
**A.** The clearance was 10.6 mL/min/kg.

**Q.** And the half-life ([1]; iv, 1 mg/kg)?
**A.** Its half-life is 3.39 h.

**Q.** What about the AUC(0-inf) ([1]; po, 3 mg/kg) of the same compound?
**A.** The AUC(0-inf) was 1020 ng·h/mL.

**Q.** What about the AUC(0-t) ([1]; po, 3 mg/kg) of the same compound?
**A.** The AUC(0-t) was 988 ng·h/mL.

**Q.** And the Cmax ([1]; po, 3 mg/kg)?
**A.** Its Cmax is 124 ng/mL.

**Q.** What about the MRT inf ([1]; po, 3 mg/kg) of the same compound?
**A.** Its MRT inf is 7.55 h.

**Q.** And the Tmax ([1]; po, 3 mg/kg)?
**A.** Its Tmax is 1 h.

**Q.** And the half-life ([1]; po, 3 mg/kg)?
**A.** The half-life was 4.44 h.

**Q.** What about the Brain concentration ([2]; 5 min, individual animals 1-3) of the same compound?
**A.** The Brain concentration was 383 ng/g and 368 ng/g.

**Q.** And the Brain concentration ([2]; 0.25 h, individual animals 1-3)?
**A.** Its Brain concentration is 454 ng/g and 394 ng/g.

**Q.** What about the Brain concentration ([2]; 0.5 h, individual animals 1-3) of the same compound?
**A.** The Brain concentration was 457 ng/g and 304 ng/g.

**Q.** What about the Brain concentration ([2]; 1 h, individual animals 1-3) of the same compound?
**A.** The Brain concentration was 348 ng/g and 354 ng/g.

**Q.** What about the Brain concentration ([2]; 2 h, individual animals 1-3) of the same compound?
**A.** Its Brain concentration is 239 ng/g and 224 ng/g.

**Q.** And the Brain concentration ([2]; 4 h, individual animals 1-3)?
**A.** Its Brain concentration is 165 ng/g and 113 ng/g.

**Q.** And the Brain concentration ([2]; 6 h, individual animals 1-3)?
**A.** Its Brain concentration is 94.1 ng/g and 81.5 ng/g.

**Q.** And the Brain concentration ([2]; 8 h, individual animals 1-3)?
**A.** The Brain concentration was 63.9 ng/g and 38.8 ng/g.

**Q.** What about the AUC0-tlast ([2]; brain, i.v. 1 mg/kg) of the same compound?
**A.** Its AUC0-tlast is 1315 ng·h/g.

**Q.** What about the AUC(0-inf) ([2]; brain, i.v. 1 mg/kg) of the same compound?
**A.** Its AUC(0-inf) is 1517 ng·h/g.

**Q.** What about the concentration at 5 min ([2]; male, CD-1, mouse, brain, 5 min, individual animals 1-3, read-out: Brain concentration) of the same compound?
**A.** Its concentration at 5 min is 490 ng/g.

**Q.** And the concentration at 5 min ([2]; male, CD-1, mouse, brain, 5 min, read-out: Brain concentration, Mean)?
**A.** Its concentration at 5 min is 414 ng/g.

**Q.** And the concentration at 0.25 h ([2]; male, CD-1, mouse, brain, 0.25 h, individual animals 1-3, read-out: Brain concentration)?
**A.** The concentration at 0.25 h was 379 ng/g.

**Q.** What about the concentration at 0.25 h ([2]; male, CD-1, mouse, brain, 0.25 h, read-out: Brain concentration, Mean) of the same compound?
**A.** Its concentration at 0.25 h is 409 ng/g.

**Q.** What about the concentration at 0.5 h ([2]; male, CD-1, mouse, brain, 0.5 h, individual animals 1-3, read-out: Brain concentration) of the same compound?
**A.** Its concentration at 0.5 h is 379 ng/g.

**Q.** And the concentration at 0.5 h ([2]; male, CD-1, mouse, brain, 0.5 h, read-out: Brain concentration, Mean)?
**A.** The concentration at 0.5 h was 380 ng/g.

**Q.** And the concentration at 1 h ([2]; male, CD-1, mouse, brain, 1 h, individual animals 1-3, read-out: Brain concentration)?
**A.** The concentration at 1 h was 262 ng/g.

**Q.** What about the concentration at 1 h ([2]; male, CD-1, mouse, brain, 1 h, read-out: Brain concentration, Mean) of the same compound?
**A.** The concentration at 1 h was 321 ng/g.

**Q.** And the concentration at 2 h ([2]; male, CD-1, mouse, brain, 2 h, individual animals 1-3, read-out: Brain concentration)?
**A.** Its concentration at 2 h is 212 ng/g.

**Q.** What about the concentration at 2 h ([2]; male, CD-1, mouse, brain, 2 h, read-out: Brain concentration, Mean) of the same compound?
**A.** The concentration at 2 h was 225 ng/g.

**Q.** What about the concentration at 4 h ([2]; male, CD-1, mouse, brain, 4 h, individual animals 1-3, read-out: Brain concentration) of the same compound?
**A.** The concentration at 4 h was 96.9 ng/g.

**Q.** What about the concentration at 4 h ([2]; male, CD-1, mouse, brain, 4 h, read-out: Brain concentration, Mean) of the same compound?
**A.** Its concentration at 4 h is 125 ng/g.

**Q.** And the concentration at 6 h ([2]; male, CD-1, mouse, brain, 6 h, individual animals 1-3, read-out: Brain concentration)?
**A.** Its concentration at 6 h is 90.1 ng/g.

**Q.** What about the concentration at 6 h ([2]; male, CD-1, mouse, brain, 6 h, read-out: Brain concentration, Mean) of the same compound?
**A.** Its concentration at 6 h is 88.6 ng/g.

**Q.** And the concentration at 8 h ([2]; male, CD-1, mouse, brain, 8 h, individual animals 1-3, read-out: Brain concentration)?
**A.** The concentration at 8 h was 45.5 ng/g.

**Q.** What about the concentration at 8 h ([2]; male, CD-1, mouse, brain, 8 h, read-out: Brain concentration, Mean) of the same compound?
**A.** Its concentration at 8 h is 49.4 ng/g.

**Q.** What about the Cmax [2, 3] of the same compound?
**A.** Its Cmax is 414 ng/g.

**Q.** What about the Tmax [2, 3] of the same compound?
**A.** Its Tmax is 5 min.

**Q.** What about the half-life ([2]; male, CD-1, mouse, iv, brain, i.v. 1 mg/kg, read-out: Apparent t1/2 (converted)) of the same compound?
**A.** The half-life was 2.83 h.

**Q.** What about the MRT inf ([2]; male, CD-1, mouse, iv, brain, i.v. 1 mg/kg, read-out: MRT0-inf) of the same compound?
**A.** Its MRT inf is 3.94 h.

Reference: patent US12570656B2, “Purine compounds for treating disorders” (MARVEL BIOTECHNOLOGY, priority 2020, dated 2026)
